According to patent US5571822A, “Antitumor compounds” (The University of North Carolina at Chapel Hill, priority 1994, dated 1996):
“Also recorded” adds a separate entry of the source. Where two headings read alike, the source gives them in different places.

What was measured:
[1] = system: approximately 60 different cell lines; experiment: NCI in vitro disease-oriented human tumor cell screen, all cell lines; assay type: cell-based; conditions: for GI50: Homo sapiens
Excerpt: The cell lines tested included cells derived from the following solid tumor types: leukemia, non-small cell lung, colon, the central nervous system (CNS), melanoma, ovarian, renal, prostate, and breast cancers.

K-562 = experiment: NCI in vitro tumor cell screen, K-562 leukemia; assay type: cell-based; conditions: Homo sapiens, K562
Description: (§1) Selected 2-phenyl-4-quinolones were assayed using an in vitro, disease-oriented antitumor screen run by the National Cancer Institute (NCI) (e.g., Boyd 1989). The screen involved approximately 60 different cell lines and is a useful indicator of in vivo antitumor activity for a broad variety of tumor types (Grever et al., 1992; Monks et al., 1991). The cell lines tested included cells derived from the following solid tumor types: leukemia, non-small cell lung, colon, the central nervous system (CNS), melanoma, ovarian, renal, prostate, and breast cancers.

SK-Mel-5 = experiment: NCI in vitro tumor cell screen, SK-Mel-5 melanoma; assay type: cell-based; conditions: Homo sapiens
Description: as §1
(§2) melonoma; SF268 and SF295, CNS tumor cell lines; DU145, prostate cancer

KM202L = experiment: NCI in vitro tumor cell screen, KM20L2 colon cancer; assay type: cell-based; conditions: Homo sapiens, KM-20L2
Description: as §1

OVCAR-4 = experiment: NCI in vitro tumor cell screen, OVCAR-4 ovarian cancer; assay type: cell-based; conditions: Homo sapiens
Description: as §1

HCT116 = experiment: NCI in vitro tumor cell screen, HCT116 colon cancer; assay type: cell-based; conditions: Homo sapiens, HCT-116
Description: as §1

tubulin [2] = experiment: inhibition of tubulin polymerization (ITP); assay type: biochemical, bovine
Description: Electrophoretically homogeneous bovine brain tubulin was purified as described previously (Hamel, et al., 1984). […] Dihydrocombretastatin A-4 was prepared as described previously (Getahun et al., 1992).
The tubulin polymerization assay was performed as described previously (Li et al., 1994). In brief, tubulin at 1.2 mg/mL ([…]) was preincubated for 15 min at 26° C. in a 0.24 mL volume in 0.8M monosodium glutamate (pH 6.6 with NaOH in a 2M stock solution) with varying drug concentrations. The drug stock solutions were in dimethyl sulfoxide, and the final solvent concentration was 4% (v/v). […] All concentrations are in terms of the final reaction volume (0.25 mL). The reaction mixtures were chilled on ice, and […] of 10 mM GTP was added to each reaction mixture. Samples were transferred to cuvettes held at 0° C. by an electronic temperature controller in Gilford spectrophotometers. Baselines were established at 350 nm, and polymerization initiated by a temperature jump to 26° C. The jump took about 50 sec to complete. After 20 min, turbidity readings were recorded, and the temperature controller was set to 0° C. When depolymerization was complete, turbidity readings were again recorded. […] IC50 values were obtained graphically from inhibition of polymerization by different drug concentrations. Four spectrophotometers were used for each experimental sequence, with at least two control reactions (no drug) in each set.

DU-145 = experiment: NCI in vitro tumor cell screen, DU-145 prostate cancer; assay type: cell-based; conditions: Homo sapiens
Description: as §1, §2

OVCAR-3 = experiment: NCI in vitro tumor cell screen, OVCAR-3 ovarian cancer; assay type: cell-based; conditions: Homo sapiens
Description: as §1

RXF-393 = experiment: NCI in vitro tumor cell screen, RXF-393 renal cancer; assay type: cell-based; conditions: Homo sapiens
Description: as §1

SF-295 = experiment: NCI in vitro tumor cell screen, SF-295 CNS tumor; assay type: cell-based; conditions: Homo sapiens, SF-295; read-out: logGI50 (converted)
Description: as §1, §2

tubulin [3] = experiment: inhibition of radiolabeled colchicine binding to tubulin (ICB); parameters: species or system bovine; conditions: evaluated only when polymerization IC50 ≤ 1.0 μM; inhibitor equimolar with [3H]colchicine, 5-fold molar excess over tubulin
Description: Studies conducted in support of the present invention indicate that one mode of action of the 2-phenyl-4-quinolone compounds, as antitumor agents, is an ability to bind to tubulin and inhibit cell mitosis. […] […].
[…]. […] […].
Electrophoretically homogeneous bovine brain tubulin was purified as described previously (Hamel, et al., 1984). Combretastatin A-4 was a generous gift of Dr. G. R. Pettit, Arizona State University. Dihydrocombretastatin A-4 was prepared as described previously (Getahun et al., 1992). […]

NCI-H226 = experiment: NCI in vitro tumor cell screen, NCI-H226 non-small cell lung cancer; assay type: cell-based; conditions: Homo sapiens
Description: as §1

MDA-N = experiment: NCI in vitro tumor cell screen, MDA-N breast cancer; assay type: cell-based; conditions: Homo sapiens
Description: as §1

SF-268 = experiment: NCI in vitro tumor cell screen, SF-268 CNS tumor; assay type: cell-based; conditions: Homo sapiens
Description: as §1, §2

protein-linked DNA = experiment: breaks in protein-linked DNA; conditions: compared with VP-16
[4] = calculated from all cell lines tested (Table II), read-out: average logGI50 (converted)
[5] = ± SD, tubulin 1.2 mg/mL, 26° C., 20 min, read-out: ITP IC50 (inhibition of tubulin polymerization)
[6] = average over cell lines, read-out: average log GI50 (converted)
[7] = SF-268, CNS tumor, read-out: logGI50 (converted)
[8] = values given in mM, read-out: IC50, inhibition of tubulin polymerization

## O=c1cc(-c2cccc(OC(F)(F)F)c2)[nH]c2cc3c(cc12)OCO3 [compound 17, 3'-Trifluoromethoxy-6,7-methylenedioxy-2-phenyl-4-quinolone]
[1]; [4]
  GI50: 417 nM
K-562
  GI50: 36.3 nM
SK-Mel-5
  GI50: 170 nM
KM202L
  GI50: 36.3 nM
OVCAR-4
  GI50: 25.7 nM
HCT116
  GI50: 14.1 nM
Tubulin [2]; [5]
  IC50: 0.0005 ± 0.0001 mM
DU-145
  GI50: 45.7 nM
OVCAR-3
  GI50: 63.1 nM
RXF-393
  GI50: 40.7 nM
SF-295
  GI50: 25.7 nM
Tubulin [3]
  ICB (% inhibition of colchicine binding): 40 ± 5%
NCI-H226
  GI50: 195 nM
MDA-N
  GI50: < 10 nM

## CCOc1cccc(-c2cc(=O)c3cc4c(cc3[nH]2)OCO4)c1 [compound 18, 3'-Ethoxy-6,7-methylenedioxy-2-phenyl-4-quinolone]
[1]; [6]
  GI50: 224 nM
[1]; [4]
  GI50: 224 nM
K-562
  GI50: 44.7 nM
SK-Mel-5
  GI50: 191 nM
SF-268; [7]
  GI50: 269 nM
KM202L
  GI50: 182 nM
HCT116
  GI50: 174 nM
Tubulin [2]; [5]
  IC50: 0.00047 ± 0.0001 mM
DU-145
  GI50: 251 nM
OVCAR-3
  GI50: 166 nM
RXF-393
  GI50: 275 nM
SF-295
  GI50: 64.6 nM
Tubulin [3]
  ICB (% inhibition of colchicine binding): 40 ± 2%
NCI-H226
  GI50: 324 nM
MDA-N
  GI50: 17.8 nM

## O=c1cc(-c2cccc(OCc3ccccc3)c2)[nH]c2cc3c(cc12)OCO3 [compound 19, 3'-Benzyloxy-6,7-methylenedioxy-2-phenyl-4-quinolone]
[1]; [4]
  GI50: 676 nM
K-562
  GI50: 363 nM
SK-Mel-5
  GI50: 282 nM
SF-268; [7]
  GI50: 12900 nM
KM202L
  GI50: 224 nM
OVCAR-4
  GI50: > 100000 nM
HCT116
  GI50: 389 nM
Tubulin [2]; [5]
  IC50: 0.00045 ± 3e-05 mM
DU-145
  GI50: 1100 nM
OVCAR-3
  GI50: 245 nM
RXF-393
  GI50: 407 nM
SF-295
  GI50: 447 nM
Tubulin [3]
  ICB (% inhibition of colchicine binding): 26 ± 5%
NCI-H226
  GI50: 229 nM
MDA-N
  GI50: 145 nM

## COc1cccc(-c2cc(O)c3cc(N(C)C)ccc3n2)c1 [compound 23, 3'-Methoxy-6-N,N-dimethylamino-2-phenyl-4-quinolone]
[1]
  antitumor activity / cytotoxicity, in words: in every case lower than those observed for compounds 10-22, 25-27, and 32
  difference in average log GI50 versus compounds 10-22, 25-27, and 32: at least 0.9 log units
[1]; [6]
  GI50: 31.6 nM
[1]; [4]
  GI50: 30.2 nM
K-562
  GI50: 8.91 nM
SK-Mel-5
  GI50: 25.7 nM
SF-268; [7]
  GI50: 43.7 nM
KM202L
  GI50: 4.57 nM
OVCAR-4
  GI50: 5500 nM
Tubulin [2]; [8]
  IC50: 0.00038 mM
Tubulin [2]; [5]
  IC50: 0.00038 ± 0.0001 mM
DU-145
  GI50: 34.7 nM
OVCAR-3
  GI50: 15.1 nM
RXF-393
  GI50: 18.6 nM
SF-295
  GI50: 15.5 nM
Tubulin [3]
  ICB (% inhibition of colchicine binding): 14 ± 8%
NCI-H226
  GI50: 44.7 nM
MDA-N
  GI50: 1.7 nM

## COc1cccc(-c2cc(O)c3cc(Cl)ccc3n2)c1 [compound 24, 3'-Methoxy-6-chloro-2-phenyl-4-quinolone]
protein-linked DNA
  breaks in protein-linked DNA: no detectable breaks in protein-linked DNA
Tubulin [2]; [5]
  IC50: 0.0007 ± 0.0002 mM
Tubulin [3]
  ICB (% inhibition of colchicine binding): 16 ± 5%

## CC(=O)Nc1ccc2nc(-c3cccc(Cl)c3)cc(O)c2c1 [compound 26, 3'-Chloro-6-acetamido-2-phenyl-4-quinolone]
[1]; [4]
  GI50: 10500 nM
OVCAR-4
  GI50: > 100000 nM
protein-linked DNA
  breaks in protein-linked DNA: no detectable breaks in protein-linked DNA
Tubulin [2]; [5]
  IC50: 0.0023 ± 0.0007 mM

## COc1cccc(-c2cc(O)c3cc(NC(C)=O)ccc3n2)c1 [compound 27, 3'-Methoxy-6-acetamido-2-phenyl-4-quinolone]
[1]; [4]
  GI50: 20000 nM
SF-268; SF-268, read-out: logGI50 (converted)
  GI50: 5500 nM
protein-linked DNA
  breaks in protein-linked DNA: no detectable breaks in protein-linked DNA
Tubulin [2]; [5]
  IC50: 0.0021 ± 0.0005 mM

## COc1cccc(-c2cc(O)c3cc(N4CCCC4)ccc3n2)c1 [compound 28, 3'-Methoxy-6-pyrrolinyl-2-phenyl-4-quinolone]
[1]
  antitumor activity / cytotoxicity, in words: most potent activity of all; also recorded: exceeded the sensitivity of the testing protocol for many of the cell lines tested
[1]; [6]
  GI50: ≤ 1.86 nM
[1]; [4]
  GI50: 1.86 nM
K-562
  GI50: < 1 nM
SK-Mel-5
  GI50: < 1 nM
SF-268; [7]
  GI50: < 1 nM
KM202L
  GI50: < 1 nM
OVCAR-4
  GI50: 2000 nM
HCT116
  GI50: < 1 nM
DU-145
  GI50: < 1 nM
OVCAR-3
  GI50: < 1 nM
RXF-393
  GI50: < 1 nM
SF-295
  GI50: < 1 nM
NCI-H226
  GI50: < 1 nM
MDA-N
  GI50: < 1 nM

## COc1cccc(-c2cc(O)c3cc(N4CCOCC4)ccc3n2)c1 [compound 31, 3'-Methoxy-6-morpholinyl-2-phenyl-4-quinolone]
[1]
  antitumor activity / cytotoxicity, in words: highly potent, with an antitumor activity comparable to that of compound 23
[1]; [4]
  GI50: 56.2 nM
K-562
  GI50: 24.5 nM
SK-Mel-5
  GI50: 35.5 nM
SF-268; [7]
  GI50: 53.7 nM
KM202L
  GI50: 33.9 nM
OVCAR-4
  GI50: 6310 nM
HCT116
  GI50: 26.9 nM
Tubulin [2]; [5]
  IC50: 0.00036 ± 0.0001 mM
DU-145
  GI50: 43.7 nM
OVCAR-3
  GI50: 20 nM
SF-295
  GI50: 49 nM
Tubulin [3]
  ICB (% inhibition of colchicine binding): 43 ± 10%
NCI-H226
  GI50: 33.9 nM
MDA-N
  GI50: 8.32 nM

## COc1cccc(-c2cc(=O)c3cc(N4CCN(C)CC4)ccc3[nH]2)c1 [compound 32, 3'-Methoxy-6-methylpiperazinyl-2-phenyl-4-quinolone]
[1]; [4]
  GI50: 1550 nM
K-562
  GI50: 537 nM
SK-Mel-5
  GI50: 912 nM
SF-268; [7]
  GI50: 1860 nM
KM202L
  GI50: 1510 nM
OVCAR-4
  GI50: > 10000 nM
HCT116
  GI50: 437 nM
Tubulin [2]; [8]
  IC50: 0.014 mM
Tubulin [2]; [5]
  IC50: 0.014 ± 0.002 mM
DU-145
  GI50: 2510 nM
RXF-393
  GI50: 457 nM
SF-295
  GI50: 1820 nM
NCI-H226
  GI50: 1510 nM
MDA-N
  GI50: 200 nM
